Key:
Assay in all cases: Kinase profiling in a biochemical assay panel (mobility shift assays and ELISA), %-inhibition at 1 μM; selectivity entropy
[1] = target: panel of more than 300 wild-type and mutant kinases (313 kinase panel) (Homo sapiens, UniProt Q14289)
[2] = target: T1, panel of more than 300 wild-type and mutant kinases (313 kinase panel) (Homo sapiens, UniProt O14733); details: kinase MAP2K7; compound at 1 μM
T1 sequence (O14733 1-419): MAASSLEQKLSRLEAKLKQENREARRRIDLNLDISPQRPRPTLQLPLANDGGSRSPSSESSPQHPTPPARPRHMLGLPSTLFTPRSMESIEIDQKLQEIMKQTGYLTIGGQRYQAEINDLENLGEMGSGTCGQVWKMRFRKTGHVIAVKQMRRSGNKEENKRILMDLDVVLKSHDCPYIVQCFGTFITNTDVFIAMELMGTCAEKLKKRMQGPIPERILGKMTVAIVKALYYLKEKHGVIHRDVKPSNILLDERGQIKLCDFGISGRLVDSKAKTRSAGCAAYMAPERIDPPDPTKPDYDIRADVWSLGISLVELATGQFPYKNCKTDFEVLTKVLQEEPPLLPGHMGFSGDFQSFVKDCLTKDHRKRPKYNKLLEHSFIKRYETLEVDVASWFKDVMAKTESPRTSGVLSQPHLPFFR

[3] = target: panel of more than 300 wild-type and mutant kinases (313 kinase panel) (Homo sapiens, UniProt O96017); details: kinase CHK2; 1 μM compound
[4] = target: panel of more than 300 wild-type and mutant kinases (313 kinase panel) (Homo sapiens, UniProt P12931); details: kinase SRC; 1 μM
[5] = target: panel of more than 300 wild-type and mutant kinases (313 kinase panel) (Homo sapiens, UniProt P27448); details: kinase MARK3; compound at 1 μM
[6] = target: panel of more than 300 wild-type and mutant kinases (313 kinase panel) (Homo sapiens, UniProt P36894); details: kinase BMPR1A; 1 μM compound
[7] = target: T2, panel of more than 300 wild-type and mutant kinases (313 kinase panel) (Homo sapiens, UniProt P42680); details: kinase TEC; 1 μM
T2 sequence (P42680 1-631): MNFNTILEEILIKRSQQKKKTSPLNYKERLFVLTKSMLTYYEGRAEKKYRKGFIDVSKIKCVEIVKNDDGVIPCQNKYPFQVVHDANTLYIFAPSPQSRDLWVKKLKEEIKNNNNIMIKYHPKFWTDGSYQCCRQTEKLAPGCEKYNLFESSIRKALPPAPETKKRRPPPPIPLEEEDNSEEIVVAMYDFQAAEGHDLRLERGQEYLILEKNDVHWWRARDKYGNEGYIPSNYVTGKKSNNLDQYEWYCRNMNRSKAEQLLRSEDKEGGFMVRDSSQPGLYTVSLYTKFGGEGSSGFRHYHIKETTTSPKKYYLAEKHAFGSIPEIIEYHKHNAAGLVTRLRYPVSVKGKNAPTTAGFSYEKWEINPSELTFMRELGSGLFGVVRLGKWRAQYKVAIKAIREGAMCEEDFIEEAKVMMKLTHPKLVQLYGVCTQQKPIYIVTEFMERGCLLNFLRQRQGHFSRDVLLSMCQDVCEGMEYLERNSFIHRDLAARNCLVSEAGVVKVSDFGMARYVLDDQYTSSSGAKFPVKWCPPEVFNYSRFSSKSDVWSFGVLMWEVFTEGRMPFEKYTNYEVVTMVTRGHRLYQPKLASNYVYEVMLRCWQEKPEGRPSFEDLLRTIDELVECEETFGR

[8] = target: panel of more than 300 wild-type and mutant kinases (313 kinase panel) (Homo sapiens, UniProt Q15759); details: kinase p38β; 1 μM
[9] = target: panel of more than 300 wild-type and mutant kinases (313 kinase panel) (Homo sapiens, UniProt Q16512); details: kinase PKN1; 1 μM
[10] = target: panel of more than 300 wild-type and mutant kinases (313 kinase panel) (Homo sapiens, UniProt Q96GD4); details: kinase AurB; 1 μM compound
[11] = target: panel of more than 300 wild-type and mutant kinases (313 kinase panel) (Homo sapiens, UniProt Q9Y2H1); details: kinase NDR2; 1 μM
[12] = target: panel of more than 300 wild-type and mutant kinases (313 kinase panel) (Homo sapiens, UniProt P10721, V560G); details: kinase KIT(V560G); compound at 1 μM
[13] = target: panel of more than 300 wild-type and mutant kinases (313 kinase panel) (Homo sapiens, UniProt P24941); details: 1 μM compound; for %-inhibition, CDK2/CycE1: kinase CDK2/CycE1; for %-inhibition, CDK2/CycA2: kinase CDK2/CycA2
[14] = target: panel of more than 300 wild-type and mutant kinases (313 kinase panel) (Homo sapiens, UniProt Q9Y6M4)
[15] = target: panel of more than 300 wild-type and mutant kinases (313 kinase panel) (Homo sapiens, UniProt Q9UM73, L1196M); details: kinase ALK(L1196M); 1 μM compound

Row | SMILES | %-inhibition of PYK2 ([1]; kinase PYK2, 1 μM) | %-inhibition of MAP2K7 [2] | %-inhibition, CHK2 [3] | %-inhibition of SRC [4] | %-inhibition of MARK3 [5] | %-inhibition, BMPR1A [6] | %-inhibition of TEC [7] | %-inhibition of p38β [8] | %-inhibition of PKN1 [9] | %-inhibition, AurB [10] | %-inhibition of NDR2 [11] | %-inhibition of KIT(V560G) [12] | %-inhibition, CDK2/CycE1 [13] | %-inhibition, CK1γ3 ([14]; kinase CK1γ3, 1 μM compound) | %-inhibition, CDK2/CycA2 [13] | %-inhibition, ALK(L1196M) [15] | %-inhibition of PYK2 ([1]; 1 µM) | %-inhibition, CK1γ3 ([14]; 1 µM)
1 | CCN(CC)CCNC(=O)c1c(C)[nH]c(/C=C2\C(=O)Nc3ccc(F)cc32)c1C [sunitinib] | 94% | – | – | – | – | – | – | – | – | – | – | – | – | – | – | – | – | –
2 | CC(C)(C)c1nc(-c2cccc(NS(=O)(=O)c3c(F)cccc3F)c2F)c(-c2ccnc(N)n2)s1 [dabrafenib] | 56% | -4.55% | 7% | 68% | 4% | 17% | 38% | 5.3% | -2.84% | 39% | -2% | – | – | – | – | – | – | –
3 | C[C@@H](Oc1cc(-c2cnn(C3CCNCC3)c2)cnc1N)c1c(Cl)ccc(F)c1Cl [crizotinib] | – | 4.36% | 9% | – | 41% | 41% | 1.53% | – | 23% | – | -4.76% | 0.851% | -14% | 4% | – | – | – | –
4 | COc1cc2c(Nc3ccc(Br)cc3F)ncnc2cc1OCC1CCN(C)CC1 [vandetanib] | 6% | 5.36% | 57% | – | 4% | 46% | 15% | 7% | 0.946% | 23% | -9% | – | -21% | 2.66% | -8% | – | – | –
5 | Cc1ccc(C(=O)Nc2ccc(CN3CCN(C)CC3)c(C(F)(F)F)c2)cc1C#Cc1cnc2cccnn12 [ponatinib] | 99% | – | – | 102% | – | 6.48% | 79% | 101% | 1.61% | 46% | – | – | 9% | 4.6% | -9% | – | – | –
6 | Cc1ccc(Nc2nccc(N(C)c3ccc4c(C)n(C)nc4c3)n2)cc1S(N)(=O)=O [pazopanib] | 39% | 10% | 5.7% | 67% | 4.45% | -1.7% | 48% | 18% | 17% | 45% | 2.36% | – | -0.507% | -2% | -5% | 25% | – | –
7 | Cc1cn(-c2cc(NC(=O)c3ccc(C)c(Nc4nccc(-c5cccnc5)n4)c3)cc(C(F)(F)F)c2)cn1 [nilotinib] | – | -24% | -12% | 23% | 11% | -22% | -0.144% | 96% | 13% | -11% | -14% | – | 20% | – | -0.282% | -42% | -63% | -10%
8 | Cc1nc(Nc2ncc(C(=O)Nc3c(C)cccc3Cl)s2)cc(N2CCN(CCO)CC2)n1 [dasatinib] | – | -7% | – | – | – | – | – | – | – | – | -6% | – | 12% | – | 5% | – | – | –
9 | COc1cc(Nc2c(C#N)cnc3cc(OCCCN4CCN(C)CC4)c(OC)cc23)c(Cl)cc1Cl [bosutinib] | 89% | – | – | 96% | – | 1.74% | 58% | -0.299% | 32% | – | – | 7% | – | 3.3% | – | – | – | –
